Experimental data from patent publication US4100346A, “Certain 7(o-amino-methyl- or methylaminomethylphenyl- or cyclohexadienyl- or thienylacetamide)-3[1-carboxymethyl-(or ethyl- or propyl-)-tetrazol-5-ylthiomethyl]-3-cephem-4-carboxylic acids” (Bristol-Myers Company, priority 1976, dated 1978).
≈ marks a conversion by molar mass, not a printed value. Where two headings read alike, the source gives them in different places.

How the values were obtained:
Citrobacter sp. [1] = test: Intramuscular treatment of systemically infected mice; assay type: in vivo; conditions: im, Citrobacter sp. strain 1, challenge 5×10^6 -2×10^7, treated 1 and 3.5 hours after infection, read-out: PD50 /treatment
Proteus mirabilis [2] = test: as above; assay type: in vivo; conditions: im, 3.5 h, read-out: PD50 /treatment
Proteus rettgeri [3] = test: as above; assay type: in vivo; conditions: Providencia rettgeri, im, Proteus rettgeri strain 4, challenge 2×10^6 -3×10^6, treated 1 and 3.5 hours after infection, read-out: PD50 /treatment
Edwardsiella tarda = test: Growth inhibitory activity, antibiotic dilution technique; conditions: read-out: Minimum inhibitory concentration
Citrobacter sp. [4] = test: as above
Pseudomonas aeruginosa = test: as above; conditions: read-out: Minimum inhibitory concentration
[5] = system: Bordetella bronchiseptica; test: as above; conditions: read-out: Minimum inhibitory concentration
Proteus rettgeri [6] = test: as above; conditions: Providencia rettgeri, read-out: percent of strains inhibited
Enterobacter aerogenes = test: Effect of inoculum size on susceptibility of Enterobacteriaceae; conditions: Klebsiella aerogenes, read-out: Minimum Inhibitory Concentration, Enterobacter aerogenes strain 1
Proteus mirabilis [7] = test: as above
Proteus vulgaris = test: as above

## Cc1nnc(SCC2=C(C(=O)O)N3C(=O)[C@@H](NC(=O)Cn4cnnn4)[C@H]3SC2)s1 [Cefazolin]
Citrobacter sp. [1]
  ED50: 110 mg/kg
Proteus mirabilis [2]; Proteus mirabilis strain 1, challenge 7×10^6 -9×10^6, treated 1 and 3.5 hours after infection
  ED50: 16 mg/kg
Proteus mirabilis [2]; Proteus mirabilis strain 5, challenge 9×10^5 -3×10^6, treated 1 and 3.5 hours after infection
  ED50: 6.2 mg/kg
Proteus mirabilis [2]; Proteus mirabilis strain 8, challenge 6×10^5 -4×10^6, treated 1 and 3.5 hours after infection
  ED50: 6.5 mg/kg
Proteus rettgeri [3]
  ED50: 9.5 mg/kg
Edwardsiella tarda
  MIC: 0.71 µg/mL (≈ 1.56 µM)
Citrobacter sp. [4]; read-out: Minimum inhibitory concentration
  MIC: 75 µg/mL (≈ 165 µM)
Citrobacter sp. [4]; read-out: Minimum inhibitory concentration, Citrobacter sp., 1 strain
  MIC: > 125 µg/mL
Pseudomonas aeruginosa
  MIC: > 125 µg/mL
[5]
  MIC: 125 µg/mL (≈ 275 µM)
Proteus rettgeri [6]
  inhibition at 16 µg/mL: 44%
Enterobacter aerogenes; A, Inoculum of 10^2 organisms
  MIC: 16 µg/mL (≈ 35.2 µM)
Enterobacter aerogenes; B, Inoculum of 10^6 organisms
  MIC: > 250 µg/mL
Proteus mirabilis [7]; read-out: Minimum Inhibitory Concentration, Proteus mirabilis strain 1, A, Inoculum of 10^2 organisms
  MIC: 4 µg/mL (≈ 8.8 µM)
Proteus mirabilis [7]; read-out: Minimum Inhibitory Concentration, Proteus mirabilis strain 1, B, Inoculum of 10^6 organisms
  MIC: 8 µg/mL (≈ 17.6 µM)
Proteus mirabilis [7]; read-out: Minimum Inhibitory Concentration, Proteus mirabilis strain 2, A, Inoculum of 10^2 organisms
  MIC: 4 µg/mL (≈ 8.8 µM)
Proteus mirabilis [7]; read-out: Minimum Inhibitory Concentration, Proteus mirabilis strain 2, B, Inoculum of 10^6 organisms
  MIC: 16 µg/mL (≈ 35.2 µM)
Proteus mirabilis [7]; read-out: Minimum Inhibitory Concentration, Proteus mirabilis strain 3, A, Inoculum of 10^2 organisms
  MIC: 8 µg/mL (≈ 17.6 µM)
Proteus mirabilis [7]; read-out: Minimum Inhibitory Concentration, Proteus mirabilis strain 3, B, Inoculum of 10^6 organisms
  MIC: 32 µg/mL (≈ 70.4 µM)
Proteus mirabilis [7]; read-out: Minimum Inhibitory Concentration, Proteus mirabilis strain 4, A, Inoculum of 10^2 organisms
  MIC: 4 µg/mL (≈ 8.8 µM)
Proteus mirabilis [7]; read-out: Minimum Inhibitory Concentration, Proteus mirabilis strain 4, B, Inoculum of 10^6 organisms
  MIC: 32 µg/mL (≈ 70.4 µM)
Proteus mirabilis [7]; read-out: Minimum Inhibitory Concentration, Proteus mirabilis strain 5, A, Inoculum of 10^2 organisms
  MIC: 4 µg/mL (≈ 8.8 µM)
Proteus mirabilis [7]; read-out: Minimum Inhibitory Concentration, Proteus mirabilis strain 5, B, Inoculum of 10^6 organisms
  MIC: 16 µg/mL (≈ 35.2 µM)
Proteus vulgaris; read-out: Minimum Inhibitory Concentration, Proteus vulgaris strain 1, A, Inoculum of 10^2 organisms
  MIC: 4 µg/mL (≈ 8.8 µM)
Proteus vulgaris; read-out: Minimum Inhibitory Concentration, Proteus vulgaris strain 1, B, Inoculum of 10^6 organisms
  MIC: 250 µg/mL (≈ 550 µM)
Proteus vulgaris; read-out: Minimum Inhibitory Concentration, Proteus vulgaris strain 2, A, Inoculum of 10^2 organisms
  MIC: 8 µg/mL (≈ 17.6 µM)
Proteus vulgaris; read-out: Minimum Inhibitory Concentration, Proteus vulgaris strain 2, B, Inoculum of 10^6 organisms
  MIC: 32 µg/mL (≈ 70.4 µM)
Proteus vulgaris; read-out: Minimum Inhibitory Concentration, Proteus vulgaris strain 4, A, Inoculum of 10^2 organisms
  MIC: 8 µg/mL (≈ 17.6 µM)
Proteus vulgaris; read-out: Minimum Inhibitory Concentration, Proteus vulgaris strain 4, B, Inoculum of 10^6 organisms
  MIC: 32 µg/mL (≈ 70.4 µM)
